Experimental data published in patent US20260315464A1, “COMPOSITIONS, METHODS, AND SYSTEMS FOR MODULATING SPLICING OF MSH3” (REVIR THERAPEUTICS, INC., priority 2023, published 2026).

Test system: MSH3
Assay: QPCR assay for levels of MSH3 upon compound treatment in HEK293T or AD293 cells (fold-change of MSH3 transcript, EC50 of MSH3 downregulation; total MSH3 exons 13/14, exons 20/21; Table 8)
Type: cell-based
Details: Homo sapiens, fold-change of the MSH3 transcript, normalized to GAPDH; for mrna remaining at 1 µM: 1 μM compound; for mrna remaining at 10 µM: 10 μM compound
Method in brief: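 MSH3 mRNA was quantified by TaqMan qPCR covering exons 13/14, exons 20/21, exon 13/PE14A and exon 20/PE21A, with GAPDH as reference. Cells used were HEK293T or AD293, treated with compound at 1 μM and […].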

| Compound | mrna remaining at 1 µM [%] | mrna remaining at 10 µM [%] |
| --- | --- | --- |
| CCN1CC2CN(c3ccc(N4Cc5c(F)cc(-c6nn(C)nc6Cl)cc5C4=O)nn3)CC2C1 (centres unmarked) [Compound 654, 6-(5-chloro-2-methyl-2H-1,2,3-triazol-4-yl)-2-(6-(5-ethylhexahydropyrrolo[3,4-c]pyrrol-2(1H)-yl)pyridazin-3-yl)-4-fluoroisoindolin-1-one] | 90 | 61 |
| Cn1nc(Cl)c(-c2cc(F)c3c(c2)C(=O)N(c2ccc(N4CC5CC(C4)N5)nn2)C3)n1 [Compound 655, 2-(6-(3,6-diazabicyclo[3.1.1]heptan-3-yl)pyridazin-3-yl)-6-(5-chloro-2-methyl-2H-1,2,3-triazol-4-yl)-4-fluoroisoindolin-1-one] | 115 | 48 |
| Cn1nc(Cl)c(-c2cc(F)c3c(c2)C(=O)N(c2ccc(N4CC[C@@H](NC(C)(C)C)C4)nn2)C3)n1 [Compound 656, (R)-2-(6-(3-(tert-butylamino)pyrrolidin-1-yl)pyridazin-3-yl)-6-(5-chloro-2-methyl-2H-1,2,3-triazol-4-yl)-4-fluoroisoindolin-1-one] | 70 | 43 |
| Cc1nn(C)nc1-c1cc(F)c2c(c1)C(=O)N(c1ccc(N3CCC(C)(C)NC(C)(C)C3)nn1)C2 [Compound 657, 6-(2,5-dimethyl-2H-1,2,3-triazol-4-yl)-4-fluoro-2-(6-(3,3,5,5-tetramethyl-1,4-diazepan-1-yl)pyridazin-3-yl)isoindolin-1-one] | 75 | 26 |
| Cc1nn(C)nc1-c1cc(F)c2c(c1)C(=O)N(c1ccc(N3CC4CCC(C3)N4)nn1)C2 [Compound 658, 2-(6-(3,8-diazabicyclo[3.2.1]octan-3-yl)pyridazin-3-yl)-6-(2,5-dimethyl-2H-1,2,3-triazol-4-yl)-4-fluoroisoindolin-1-one] | 132 | 51 |
| Cn1nc(Cl)c(-c2cc(F)c3c(c2)C(=O)N(c2ccc(N4CCC5CCC(C4)N5)nn2)C3)n1 (centres unmarked) [Compound 659, 2-(6-(3,9-diazabicyclo[4.2.1]nonan-3-yl)pyridazin-3-yl)-6-(5-chloro-2-methyl-2H-1,2,3-triazol-4-yl)-4-fluoroisoindolin-1-one] | 142 | 57 |
| Cc1nn(C)nc1-c1cc(Cl)c2c(c1)C(=O)N(c1ccc(N(C)[C@H]3C[C@]4(C)CC[C@](C)(C3)N4)nn1)C2 [Compound 660, 4-chloro-6-(2,5-dimethyl-2H-1,2,3-triazol-4-yl)-2-(6-(((1R,3s,5S)-1,5-dimethyl-8-azabicyclo[3.2.1]octan-3-yl)(methyl)amino)pyridazin-3-yl)isoindolin-1-one] | 101 | 50 |
| Cc1nn(C)nc1-c1cc(Cl)c2c(c1)C(=O)N(c1ccc(O[C@H]3C[C@]4(C)CC[C@](C)(C3)N4)nn1)C2 [Compound 661, 4-chloro-6-(2,5-dimethyl-2H-1,2,3-triazol-4-yl)-2-(6-(((1R,3s,5S)-1,5-dimethyl-8-azabicyclo[3.2.1]octan-3-yl)oxy)pyridazin-3-yl)isoindolin-1-one] | 155 | 33 |
| Cc1nn(C)nc1-c1cc(F)c2c(c1)C(=O)N(c1ccc(N3CC4CC(C3)N4)nn1)C2 [Compound 662, 2-(6-(3,6-diazabicyclo[3.1.1]heptan-3-yl)pyridazin-3-yl)-6-(2,5-dimethyl-2H-1,2,3-triazol-4-yl)-4-fluoroisoindolin-1-one] | 191 | 87 |
| CCN1CC2CN(c3ccc(N4Cc5c(F)cc(-c6nn(C)nc6C)cc5C4=O)nn3)CC2C1 (centres unmarked) [Compound 663, 6-(2,5-dimethyl-2H-1,2,3-triazol-4-yl)-2-(6-(5-ethylhexahydropyrrolo[3,4-c]pyrrol-2(1H)-yl)pyridazin-3-yl)-4-fluoroisoindolin-1-one] | 232 | 62 |
| Cc1nn(C)nc1-c1cc(Cl)c2c(c1)C(=O)N(c1ccc(OC3CC(C)(C)NC(C)(C)C3)nn1)C2 [Compound 664, 4-chloro-6-(2,5-dimethyl-2H-1,2,3-triazol-4-yl)-2-(6-((2,2,6,6-tetramethylpiperidin-4-yl)oxy)pyridazin-3-yl)isoindolin-1-one] | 94 | 20 |
| Cc1nn(C)nc1-c1cc(F)c2c(c1)C(=O)N(c1ccc(N3CCN4CCC[C@H]4C3)nn1)C2 [Compound 665, (S)-6-(2,5-dimethyl-2H-1,2,3-triazol-4-yl)-4-fluoro-2-(6-(hexahydropyrrolo[1,2-a]pyrazin-2(1H)-yl)pyridazin-3-yl)isoindolin-1-one] | 92 | 32 |
| Cc1nn(C)nc1-c1cc(F)c2c(c1)C(=O)N(c1ccc(N3CC4(CNC4)C3)nn1)C2 [Compound 666, 2-(6-(2,6-diazaspiro[3.3]heptan-2-yl)pyridazin-3-yl)-6-(2,5-dimethyl-2H-1,2,3-triazol-4-yl)-4-fluoroisoindolin-1-one] | 97 | 59 |
| CN(C)C1CCN(c2ccc(N3Cc4c(F)cc(-c5nn(C)nc5Cl)cc4C3=O)nn2)CC1 [Compound 667, 6-(5-chloro-2-methyl-2H-1,2,3-triazol-4-yl)-2-(6-(4-(dimethylamino)piperidin-1-yl)pyridazin-3-yl)-4-fluoroisoindolin-1-one] | 92 | 71 |
| CC1CCN(c2ccc(N3Cc4c(F)cc(-c5nn(C)nc5Cl)cc4C3=O)nn2)CCN1 (centres unmarked) [Compound 668, 6-(5-chloro-2-methyl-2H-1,2,3-triazol-4-yl)-4-fluoro-2-(6-(5-methyl-1,4-diazepan-1-yl)pyridazin-3-yl)isoindolin-1-one] | 103 | 13 |
| Cc1nn(C)nc1-c1cc(F)c2c(c1)C(=O)N(c1ccc(N3CCCNCC3)nn1)C2 [Compound 669, 2-(6-(1,4-diazepan-1-yl)pyridazin-3-yl)-6-(2,5-dimethyl-2H-1,2,3-triazol-4-yl)-4-fluoroisoindolin-1-one] | 97 | 42 |
| Cn1nc(Cl)c(-c2cc(F)c3c(c2)C(=O)N(c2ccc(N4CC5(CNC5)C4)nn2)C3)n1 [Compound 670, 2-(6-(2,6-diazaspiro[3.3]heptan-2-yl)pyridazin-3-yl)-6-(5-chloro-2-methyl-2H-1,2,3-triazol-4-yl)-4-fluoroisoindolin-1-one] | 92 | 44 |
| Cn1nc(Cl)c(-c2cc(F)c3c(c2)C(=O)N(c2ccc(N4CCN5CCC[C@H]5C4)nn2)C3)n1 [Compound 671, (S)-6-(5-chloro-2-methyl-2H-1,2,3-triazol-4-yl)-4-fluoro-2-(6-(hexahydropyrrolo[1,2-a]pyrazin-2(1H)-yl)pyridazin-3-yl)isoindolin-1-one] | 94 | 47 |
| Cc1nn(C)nc1-c1cc(F)c2c(c1)C(=O)N(c1ccc(N3CCC(N(C)C)CC3)nn1)C2 [Compound 672, 6-(2,5-dimethyl-2H-1,2,3-triazol-4-yl)-2-(6-(4-(dimethylamino)piperidin-1-yl)pyridazin-3-yl)-4-fluoroisoindolin-1-one] | 95 | 74 |
| CN(c1ccc(N2Cc3c(F)cc(-n4nccn4)cc3C2=O)nn1)[C@H]1C[C@]2(C)CC[C@](C)(C1)N2 [Compound 673, 2-(6-(((1R,3s,5S)-1,5-dimethyl-8-azabicyclo[3.2.1]octan-3-yl)(methyl)amino)pyridazin-3-yl)-4-fluoro-6-(2H-1,2,3-triazol-2-yl)isoindolin-1-one] | 91 | 33 |
| Cc1nn(C)nc1-c1cc(F)c2c(c1)C(=O)N(c1ccc(N3C[C@@H](C)NC[C@@H]3C)nn1)C2 [Compound 674, 6-(2,5-dimethyl-2H-1,2,3-triazol-4-yl)-2-(6-((2S,5R)-2,5-dimethylpiperazin-1-yl)pyridazin-3-yl)-4-fluoroisoindolin-1-one] | 98 | 49 |
| Cc1nn(C)nc1-c1cc(C#N)c2c(c1)C(=O)N(c1ccc(N(C)[C@H]3C[C@]4(C)CC[C@](C)(C3)N4)nn1)C2 [Compound 676, 6-(2,5-dimethyl-2H-1,2,3-triazol-4-yl)-2-(6-(((1R,3s,5S)-1,5-dimethyl-8-azabicyclo[3.2.1]octan-3-yl)(methyl)amino)pyridazin-3-yl)-1-oxoisoindoline-4-carbonitrile] | 48 | 17 |
| CN(c1ccc(N2Cc3c(Cl)cc(-c4nn(C)nc4Cl)cc3C2=O)nn1)[C@H]1C[C@]2(C)CC[C@](C)(C1)N2 [Compound 679, 4-chloro-6-(5-chloro-2-methyl-2H-1,2,3-triazol-4-yl)-2-(6-(((1R,3s,5S)-1,5-dimethyl-8-azabicyclo[3.2.1]octan-3-yl)(methyl)amino)pyridazin-3-yl)isoindolin-1-one] | 95 | 34 |
| Cn1nc(Cl)c(-c2cc(C#N)c3c(c2)C(=O)N(c2ccc(OC4CC(C)(C)NC(C)(C)C4)nn2)C3)n1 [Compound 680, 6-(5-chloro-2-methyl-2H-1,2,3-triazol-4-yl)-1-oxo-2-(6-((2,2,6,6-tetramethylpiperidin-4-yl)oxy)pyridazin-3-yl)isoindoline-4-carbonitrile] | 94 | 31 |
| Cc1nn(C)nc1-c1cc(C#N)c2c(c1)C(=O)N(c1ccc(O[C@H]3C[C@]4(C)CC[C@](C)(C3)N4)nn1)C2 [Compound 681, 6-(2,5-dimethyl-2H-1,2,3-triazol-4-yl)-2-(6-(((1R,3s,5S)-1,5-dimethyl-8-azabicyclo[3.2.1]octan-3-yl)oxy)pyridazin-3-yl)-1-oxoisoindoline-4-carbonitrile] | 76 | 8 |
